Test results taken from ChEMBL document CHEMBL1201862, “PubChem BioAssay data set” (2004).
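Exposure lasted 48 hours, with cells grown in 96-well plates and compounds tested at five concentrations. GI50: concentration for 50% inhibition of growth.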 Active and inactive are the calls of the source. Cut-off read from the data, not from the text of the source: active = GI50 up to about 1.1 µM and inactive = higher.

Assays:
Assay in all cases: DTP human tumour cell line panel, 48 h
[1] = test system: HCT-15
[2] = test system: EKVX
[3] = test system: SF-539
[4] = test system: OVCAR-5
[5] = test system: LOX IMVI
[6] = test system: CAKI-1
[7] = test system: HCT-116
[8] = test system: MOLT-4
[9] = test system: T47D
[10] = test system: SF-295
[11] = test system: OVCAR-4
[12] = test system: COLO 205
[13] = test system: 786-0
[14] = test system: SNB-75
[15] = test system: HOP-92
[16] = test system: OVCAR-8
[17] = test system: MDA-MB-435
[18] = test system: MCF7
[19] = test system: SK-MEL-5
[20] = test system: NCI-H522

`O=C(O)c1ccccc1C(=O)OCC1CCCN2CCCCC12` (configuration not stated) was tested, and the GI50 [1] was greater than 100 µM, the GI50 [2] was > 100 µM (inactive) and the GI50 [3] was > 100 µM (inactive). The GI50 [4] was > 100 µM (inactive), the GI50 [5] was > 100 µM (inactive) and the GI50 [6] was > 100 µM (inactive). The GI50 [7] was > 100 µM (inactive), the GI50 [8] was > 100 µM (inactive) and the GI50 [9] was > 100 µM (inactive). For the same compound, the GI50 [10] was > 100 µM (inactive), the GI50 [11] was > 100 µM (inactive) and the GI50 [12] was > 100 µM (inactive). The GI50 [13] was > 100 µM (inactive), the GI50 [14] was > 100 µM (inactive) and the GI50 [15] was > 100 µM (inactive). The GI50 [16] was > 100 µM (inactive), the GI50 [17] was > 100 µM (inactive) and the GI50 [18] was > 100 µM (inactive). The GI50 [19] was > 100 µM (inactive).

With `COC(=O)c1c(C)nc(C)c(NO)c1-c1ccccc1C(F)(F)F` the GI50 [1] was 16.1 µM, the GI50 [2] was 83 µM (inactive) and the GI50 [3] was 16 µM (inactive). The GI50 [4] was 31.8 µM (inactive), the GI50 [5] was 38.3 µM (inactive) and the GI50 [6] was 16.2 µM (inactive). For the same compound, the GI50 [7] was 16.3 µM (inactive), the GI50 [8] was 26.1 µM (inactive) and the GI50 [9] was 28 µM (inactive). For the same compound, the GI50 [10] was > 100 µM (inactive), the GI50 [20] was 17.2 µM (inactive) and the GI50 [11] was 20 µM (inactive). The GI50 [12] was 27.1 µM (inactive), the GI50 [13] was 16.4 µM (inactive) and the GI50 [15] was 14.2 µM (inactive). The GI50 [16] was 18.5 µM (inactive), the GI50 [17] was 19.6 µM (inactive) and the GI50 [18] was 19.2 µM (inactive). For the same compound, the GI50 [19] was 41.7 µM (inactive).

In the case of `Cc1ccc(C(=O)N(C(C)C)C(C)C)cc1/N=N/N(C)C`, the GI50 [1] is reported as greater than 82.6 µM, the GI50 [2] is reported as > 100 µM (inactive) and the GI50 [3] is reported as > 95.7 µM (inactive). For the same compound, the GI50 [4] was > 100 µM (inactive), the GI50 [5] was > 31.6 µM (inactive) and the GI50 [6] was > 100 µM (inactive). The GI50 [7] was > 75.9 µM (inactive), the GI50 [8] was 45.3 µM (inactive) and the GI50 [9] was 39.4 µM (inactive). For the same compound, the GI50 [10] was > 86.9 µM (inactive), the GI50 [20] was 18.2 µM (inactive) and the GI50 [11] was > 100 µM (inactive). The GI50 [12] was > 100 µM (inactive), the GI50 [13] was > 100 µM (inactive) and the GI50 [15] was > 64.6 µM (inactive). The GI50 [16] was > 100 µM (inactive), the GI50 [17] was > 100 µM (inactive) and the GI50 [18] was > 100 µM (inactive). For the same compound, the GI50 [19] was > 100 µM (inactive).

`Cc1ccc(S(=O)(=O)NNC(=O)Nc2cccc(C(F)(F)F)c2)cc1` was tested, and the GI50 [1] was 89.1 µM, the GI50 [2] was > 100 µM (inactive) and the GI50 [3] was > 100 µM (inactive). The GI50 [4] was > 100 µM (inactive), the GI50 [6] was > 100 µM (inactive) and the GI50 [7] was 97.1 µM (inactive). For the same compound, the GI50 [8] was > 100 µM (inactive), the GI50 [9] was > 100 µM (inactive) and the GI50 [10] was > 100 µM (inactive). The GI50 [20] was 38.4 µM (inactive), the GI50 [11] was 0.0653 µM (active) and the GI50 [12] was > 100 µM (inactive). The GI50 [13] was > 100 µM (inactive), the GI50 [14] was 0.0284 µM (active) and the GI50 [15] was > 100 µM (inactive). The GI50 [16] was > 100 µM (inactive), the GI50 [17] was > 100 µM (inactive) and the GI50 [18] was 97.1 µM (inactive). The GI50 [19] was 33.3 µM (inactive).

With `O=C1/C(=N/c2ccc(Nc3ccccc3)cc2)Oc2ccccc21` the GI50 [1] was 3.3 µM, the GI50 [2] was 5.31 µM (inactive) and the GI50 [3] was 3.27 µM (inactive). The GI50 [4] was 2.54 µM (inactive), the GI50 [5] was 2.34 µM (inactive) and the GI50 [6] was 1.85 µM (inactive). The GI50 [7] was 1.67 µM (inactive), the GI50 [8] was 2.13 µM (inactive) and the GI50 [9] was 3 µM (inactive). For the same compound, the GI50 [10] was 3.35 µM (inactive), the GI50 [20] was 1.83 µM (inactive) and the GI50 [11] was 2.33 µM (inactive). For the same compound, the GI50 [12] was 1.65 µM (inactive), the GI50 [13] was 1.88 µM (inactive) and the GI50 [14] was 2.15 µM (inactive). The GI50 [16] was 2.64 µM (inactive), the GI50 [17] was 1.82 µM (inactive) and the GI50 [18] was 2.55 µM (inactive). For the same compound, the GI50 [19] was 4.68 µM (inactive).

With `O=C1CSC(c2ccccc2O)N1c1ccc2c(c1)Oc1c(Cl)c3c(c(Cl)c1=N2)Oc1cc(N2C(=O)CSC2c2ccccc2O)ccc1N=3` (configuration not stated) the GI50 [1] was greater than 100 µM, the GI50 [2] was > 100 µM (inactive) and the GI50 [3] was 37.9 µM (inactive). The GI50 [4] was > 100 µM (inactive), the GI50 [5] was 42.1 µM (inactive) and the GI50 [6] was > 100 µM (inactive). For the same compound, the GI50 [7] was 30.6 µM (inactive), the GI50 [8] was 2.55 µM (inactive) and the GI50 [9] was 37.4 µM (inactive). For the same compound, the GI50 [10] was 42 µM (inactive), the GI50 [20] was 20.6 µM (inactive) and the GI50 [11] was 64.7 µM (inactive). For the same compound, the GI50 [13] was 40.1 µM (inactive), the GI50 [15] was 17.1 µM (inactive) and the GI50 [16] was 29.4 µM (inactive). For the same compound, the GI50 [17] was 29.1 µM (inactive), the GI50 [18] was 34 µM (inactive) and the GI50 [19] was > 100 µM (inactive).

In the case of `C/C(=N/Nc1nc(C)cc(O)n1)C(=O)O`, the GI50 [1] is reported as greater than 100 µM, the GI50 [2] is reported as > 100 µM (inactive) and the GI50 [4] is reported as > 100 µM (inactive). For the same compound, the GI50 [5] was > 100 µM (inactive), the GI50 [6] was > 100 µM (inactive) and the GI50 [7] was > 100 µM (inactive). The GI50 [8] was > 100 µM (inactive), the GI50 [9] was > 100 µM (inactive) and the GI50 [10] was > 100 µM (inactive). For the same compound, the GI50 [20] was > 100 µM (inactive), the GI50 [11] was > 100 µM (inactive) and the GI50 [12] was > 100 µM (inactive). For the same compound, the GI50 [13] was > 100 µM (inactive), the GI50 [14] was > 100 µM (inactive) and the GI50 [16] was > 100 µM (inactive). For the same compound, the GI50 [17] was > 100 µM (inactive), the GI50 [18] was > 100 µM (inactive) and the GI50 [19] was > 100 µM (inactive).

`COc1cc(C2c3cc4c(cc3OC(Nc3ccccc3)C2C)OCO4)cc(OC)c1O` (configuration not stated) was tested, and the GI50 [1] was 3.02 µM, the GI50 [3] was 2.84 µM (inactive) and the GI50 [4] was 7.96 µM (inactive). For the same compound, the GI50 [6] was 8.39 µM (inactive), the GI50 [7] was 3.93 µM (inactive) and the GI50 [8] was 0.836 µM (active). The GI50 [9] was 15.8 µM (inactive), the GI50 [10] was 4.28 µM (inactive) and the GI50 [20] was 2.35 µM (inactive). The GI50 [11] was 11.8 µM (inactive), the GI50 [12] was 11.3 µM (inactive) and the GI50 [13] was 7.5 µM (inactive). The GI50 [14] was 1.63 µM (inactive), the GI50 [15] was 16.7 µM (inactive) and the GI50 [16] was 4.75 µM (inactive). For the same compound, the GI50 [17] was 0.394 µM (active), the GI50 [18] was 4.47 µM (inactive) and the GI50 [19] was 3.08 µM (inactive).

For `CCCCCCSC[C@H](OC(C)=O)[C@@H](OC(C)=O)[C@@H](OC(C)=O)[C@@H](COC(C)=O)OC(C)=O`, the GI50 [1] was 62.5 µM, the GI50 [2] was > 100 µM (inactive) and the GI50 [3] was > 100 µM (inactive). The GI50 [4] was > 100 µM (inactive), the GI50 [5] was > 100 µM (inactive) and the GI50 [6] was > 100 µM (inactive). The GI50 [7] was 49.9 µM (inactive), the GI50 [8] was 26.9 µM (inactive) and the GI50 [9] was 38.6 µM (inactive). For the same compound, the GI50 [10] was > 100 µM (inactive), the GI50 [11] was > 100 µM (inactive) and the GI50 [12] was 64.9 µM (inactive). For the same compound, the GI50 [13] was > 100 µM (inactive), the GI50 [14] was > 100 µM (inactive) and the GI50 [15] was > 100 µM (inactive). For the same compound, the GI50 [16] was > 100 µM (inactive), the GI50 [17] was > 100 µM (inactive) and the GI50 [18] was 85.5 µM (inactive). The GI50 [19] was 23.4 µM (inactive).

`O=C(c1ccc(Cl)cc1)N(C(=S)OCc1ccccn1)c1ccccc1` was tested, and the GI50 [1] was 40.4 µM, the GI50 [2] was 20.6 µM (inactive) and the GI50 [3] was 33 µM (inactive). For the same compound, the GI50 [4] was 73.6 µM (inactive), the GI50 [5] was 68.2 µM (inactive) and the GI50 [6] was 71.8 µM (inactive). For the same compound, the GI50 [7] was 46.6 µM (inactive), the GI50 [8] was 41.6 µM (inactive) and the GI50 [9] was 29.3 µM (inactive). For the same compound, the GI50 [10] was 76.6 µM (inactive), the GI50 [12] was > 100 µM (inactive) and the GI50 [13] was 83.2 µM (inactive). For the same compound, the GI50 [16] was > 100 µM (inactive), the GI50 [17] was > 100 µM (inactive) and the GI50 [18] was 46.3 µM (inactive). For the same compound, the GI50 [19] was 58.9 µM (inactive).

With `CC1(C)N=c2c(ncn2CCO)=C(C(N)=O)N1` the GI50 [1] was greater than 100 µM, the GI50 [2] was > 100 µM (inactive) and the GI50 [3] was > 100 µM (inactive). The GI50 [4] was > 100 µM (inactive), the GI50 [5] was > 100 µM (inactive) and the GI50 [6] was > 100 µM (inactive). The GI50 [7] was > 100 µM (inactive), the GI50 [9] was > 100 µM (inactive) and the GI50 [10] was > 100 µM (inactive). The GI50 [20] was > 100 µM (inactive), the GI50 [11] was > 100 µM (inactive) and the GI50 [12] was > 100 µM (inactive). The GI50 [13] was > 100 µM (inactive), the GI50 [15] was 26.2 µM (inactive) and the GI50 [16] was > 100 µM (inactive). For the same compound, the GI50 [17] was > 100 µM (inactive), the GI50 [18] was > 100 µM (inactive) and the GI50 [19] was > 100 µM (inactive).
